Data published in publication PMC6979384, “Characterization of the plant homeodomain (PHD) reader family for their histone tail interactions” (Epigenetics & Chromatin, 2020).

How the values were obtained:
Assay in all cases: Histone peptide microarray
Assay type in all cases: binding, human
[1] = tested on: AIRE (PP); conditions: sheet "Array Heatmap"; GST-tagged AIRE (PP); arrays performed twice, total replicate number n = 4
In short: (§1)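 Readout is array binding signal, reported as the mean and standard deviation over four replicates. Each purified GST-fused PHD domain was incubated at 0.5 μM with a library of 293 modified histone peptides.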

[2] = tested on: BAZ2B; conditions: sheet "Array Heatmap"; GST-tagged BAZ2B; arrays performed twice, total replicate number n = 4
In short: as §1

[3] = tested on: BPTF (PB); conditions: sheet "Array Heatmap"; GST-tagged BPTF (PB); arrays performed twice, total replicate number n = 4
In short: as §1

[4] = tested on: CHD4 (PPCC); conditions: sheet "Array Heatmap"; GST-tagged CHD4 (PPCC); arrays performed twice, total replicate number n = 4
In short: as §1

[5] = tested on: CHD5 (PCC); conditions: sheet "Array Heatmap"; GST-tagged CHD5 (PCC); arrays performed twice, total replicate number n = 4
In short: as §1

[6] = tested on: CHD5 (PPCC); conditions: sheet "Array Heatmap"; GST-tagged CHD5 (PPCC); arrays performed twice, total replicate number n = 4
In short: as §1

[7] = tested on: DIDO1; conditions: sheet "Array Heatmap"; GST-tagged DIDO1; arrays performed twice, total replicate number n = 4
In short: as §1

[8] = tested on: DPF2 (PPC2W2); conditions: sheet "Array Heatmap"; GST-tagged DPF2 (PPC2W2); arrays performed twice, total replicate number n = 4
In short: as §1

[9] = tested on: ING1; conditions: sheet "Array Heatmap"; GST-tagged ING1; arrays performed twice, total replicate number n = 4
In short: as §1

[10] = tested on: ING2; conditions: sheet "Array Heatmap"; GST-tagged ING2; arrays performed twice, total replicate number n = 4
In short: as §1

[11] = tested on: ING3; conditions: sheet "Array Heatmap"; GST-tagged ING3; arrays performed twice, total replicate number n = 4
In short: as §1

[12] = tested on: ING4; conditions: sheet "Array Heatmap"; GST-tagged ING4; arrays performed twice, total replicate number n = 4
In short: as §1

[13] = tested on: ING5; conditions: sheet "Array Heatmap"; GST-tagged ING5; arrays performed twice, total replicate number n = 4
In short: as §1

[14] = tested on: KDM4C (TTP); conditions: sheet "Array Heatmap"; GST-tagged KDM4C (TTP); arrays performed twice, total replicate number n = 4
In short: as §1

[15] = tested on: KDM5A (1); conditions: sheet "Array Heatmap"; GST-tagged KDM5A (1); arrays performed twice, total replicate number n = 4
In short: as §1

[16] = tested on: KDM5A (3); conditions: sheet "Array Heatmap"; GST-tagged KDM5A (3); arrays performed twice, total replicate number n = 4
In short: as §1

[17] = tested on: KDM5B (1); conditions: sheet "Array Heatmap"; GST-tagged KDM5B (1); arrays performed twice, total replicate number n = 4
In short: as §1

[18] = tested on: KDM5B (3); conditions: sheet "Array Heatmap"; GST-tagged KDM5B (3); arrays performed twice, total replicate number n = 4
In short: as §1

[19] = tested on: KDM7A; conditions: sheet "Array Heatmap"; GST-tagged KDM7A; arrays performed twice, total replicate number n = 4
In short: as §1

[20] = tested on: MLL5; conditions: sheet "Array Heatmap"; GST-tagged MLL5; arrays performed twice, total replicate number n = 4
In short: as §1

[21] = tested on: MORC3 (CW); conditions: sheet "Array Heatmap"; GST-tagged MORC3 (CW); arrays performed twice, total replicate number n = 4
In short: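 A peptide microarray holding 293 synthetic histone peptides with individual or combinatorial modifications was probed with each GST-PHD protein at 0.5 μM. Values represent mean intensity (±SD) from four replicates.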

[22] = tested on: PHF13; conditions: sheet "Array Heatmap"; GST-tagged PHF13; arrays performed twice, total replicate number n = 4
In short: as §1

[23] = tested on: PHF21A; conditions: sheet "Array Heatmap"; GST-tagged PHF21A; arrays performed twice, total replicate number n = 4
In short: as §1

[24] = tested on: PHF23; conditions: sheet "Array Heatmap"; GST-tagged PHF23; arrays performed twice, total replicate number n = 4
In short: as §1

[25] = tested on: PHF2; conditions: sheet "Array Heatmap"; GST-tagged PHF2; arrays performed twice, total replicate number n = 4
In short: as §1

[26] = tested on: PHF8; conditions: sheet "Array Heatmap"; GST-tagged PHF8; arrays performed twice, total replicate number n = 4
In short: as §1

[27] = tested on: PHRF1 (RP); conditions: sheet "Array Heatmap"; GST-tagged PHRF1 (RP); arrays performed twice, total replicate number n = 4
In short: as §1

[28] = tested on: RAG2; conditions: sheet "Array Heatmap"; GST-tagged RAG2; arrays performed twice, total replicate number n = 4
In short: as §1

[29] = tested on: SP140L; conditions: sheet "Array Heatmap"; GST-tagged SP140L; arrays performed twice, total replicate number n = 4
In short: as §1

[30] = tested on: TAF3; conditions: sheet "Array Heatmap"; GST-tagged TAF3; arrays performed twice, total replicate number n = 4
In short: as §1

[31] = tested on: TRIM66 (PB); conditions: sheet "Array Heatmap"; GST-tagged TRIM66 (PB); arrays performed twice, total replicate number n = 4
In short: as §1

Substance	Array Heatmap signal, AIRE (PP) [1]	Array Heatmap signal, BAZ2B [2]	Array Heatmap signal, BPTF (PB) [3]	Array Heatmap signal, CHD4 (PPCC) [4]	Array Heatmap signal, CHD5 (PCC) [5]	Array Heatmap signal, CHD5 (PPCC) [6]	Array Heatmap signal, DIDO1 [7]	Array Heatmap signal, DPF2 (PPC2W2) [8]	Array Heatmap signal, ING1 [9]	Array Heatmap signal, ING2 [10]	Array Heatmap signal, ING3 [11]	Array Heatmap signal, ING4 [12]	Array Heatmap signal, ING5 [13]	Array Heatmap signal, KDM4C (TTP) [14]	Array Heatmap signal, KDM5A (1) [15]	Array Heatmap signal, KDM5A (3) [16]	Array Heatmap signal, KDM5B (1) [17]	Array Heatmap signal, KDM5B (3) [18]	Array Heatmap signal, KDM7A [19]	Array Heatmap signal, MLL5 [20]	other results
H3.3 15-34: H3.3 15-34	0.5768	0.5105	0.3589	0.5508	0.807	0.5888	0.6133	0.6732	0.5055	0.6004	0.4684	0.4948	0.3926	0.5726	0.5272	0.4324	0.7186	0.5078	0.5038	0.5484	Array Heatmap signal, MORC3 (CW) [21]: 0.367; Array Heatmap signal, PHF13 [22]: 0.6359; Array Heatmap signal, PHF21A [23]: 0.4988; Array Heatmap signal, PHF23 [24]: 0.5121; Array Heatmap signal, PHF2 [25]: 0.4208; Array Heatmap signal, PHF8 [26]: 0.386; Array Heatmap signal, PHRF1 (RP) [27]: 0.4107; Array Heatmap signal, RAG2 [28]: 0.2498; Array Heatmap signal, SP140L [29]: 0.3703; Array Heatmap signal, TAF3 [30]: 0.298; Array Heatmap signal, TRIM66 (PB) [31]: 0.563
H3.3 30-49: H3.3 30-49	0.4614	0.4498	0.3385	0.5572	0.7506	0.5477	0.5964	0.6135	0.4817	0.5868	0.4515	0.4627	0.3551	0.523	0.4724	0.3975	0.6846	0.4643	0.4094	0.5124	Array Heatmap signal, MORC3 (CW) [21]: 0.3401; Array Heatmap signal, PHF13 [22]: 0.586; Array Heatmap signal, PHF21A [23]: 0.447; Array Heatmap signal, PHF23 [24]: 0.5238; Array Heatmap signal, PHF2 [25]: 0.404; Array Heatmap signal, PHF8 [26]: 0.3443; Array Heatmap signal, PHRF1 (RP) [27]: 0.4134; Array Heatmap signal, RAG2 [28]: 0.2343; Array Heatmap signal, SP140L [29]: 0.3561; Array Heatmap signal, TAF3 [30]: 0.2689; Array Heatmap signal, TRIM66 (PB) [31]: 0.5248
H3.3 75-94: H3.3 120-135	0.502	0.4527	0.3448	0.5423	0.7355	0.563	0.6416	0.6426	0.5031	0.5986	0.473	0.4549	0.3621	0.5145	0.468	0.454	0.6676	0.4774	0.3506	0.5079	Array Heatmap signal, MORC3 (CW) [21]: 0.3704; Array Heatmap signal, PHF13 [22]: 0.6071; Array Heatmap signal, PHF21A [23]: 0.449; Array Heatmap signal, PHF23 [24]: 0.5259; Array Heatmap signal, PHF2 [25]: 0.46; Array Heatmap signal, PHF8 [26]: 0.3469; Array Heatmap signal, PHRF1 (RP) [27]: 0.4716; Array Heatmap signal, RAG2 [28]: 0.2477; Array Heatmap signal, SP140L [29]: 0.3784; Array Heatmap signal, TAF3 [30]: 0.2603; Array Heatmap signal, TRIM66 (PB) [31]: 0.5407
